Laboratory results: patent US6166067A, “Inhibitors of cholesterol-biosynthesis for reducing the cholesterol content of poultry eggs” (priority 1998, dated 2000)
Counter-ions that a name gives are not always drawn. Like-named read-outs stand apart in the source and are kept apart here. Blank lines part the entries; values can stand above or below the compound they belong to.

Assays:
cholesterol in yolk = assay: Cholesterol in egg yolk, laying-hen feeding trial (Example 2); format: in vivo, laying hens; conditions: for Cholesterol, yolk: control 10.23; for reduction in yolk cholesterol: significant; for trend in yolk cholesterol content: Example 2
From the text: (§1) For the cholesterol determination, the cholesterol esters were cleaved to cholesterol and fatty acid by the action of cholesterol esterase. Free cholesterol is converted by atmospheric oxygen with the involvement of cholesterol oxidase into Δ^4 -cholestenone and hydrogen peroxide. The resulting hydrogen peroxide forms with 4-aminophenazone and phenol through the catalytic action of peroxidase a red dye whose intensity of color is directly proportional to the cholesterol concentration and can be measured at 500 to 550 nm.
(§2) Another feeding experiment was carried out in analogy to Example 1. In this case the intention was to test not only α- and δ-tocotrienol but also a tocotrienol precursor (4-oxo-γ-tocotrienol) and other terpenoids such as farnesyl acetate, perillyl alcohol, linalool and β-ionone, in laying hens.
(§3) The trial protocol corresponds to that in Example 1 but with the following amendments:
(§4) The number of birds comprised 8 hens per treatment.
(§5) Triglyceride and cholesterol were determined in 4 independent yolk pools(each from 6 eggs) and plasma.

plasma cholesterol [1] = assay: Cholesterol in plasma, laying-hen feeding trial (Example 2); format: in vivo, laying hens; conditions: control 125.3
From the text: as §1, §2, §3, §4
(§6) 4 birds in each case from the control and the high dosages were sacrificed at the end of the trial. After taking blood to obtain plasma, the birds were completely exsanguinated. The liver was then removed and deep frozen until analyzed.
as §5

triglycerides in yolk = assay: Triglycerides in egg yolk, laying-hen feeding trial (Example 2); format: in vivo, laying hens; conditions: control 170.4
Method: (§7) The triglycerides are determined enzymatically via their glycerol content. The triglycerides are cleaved enzymatically by the enzymes lipase and esterase. The resulting glycerol is phosphorylated by ATP to glycerol 3-phosphate in the reaction catalyzed by glycerol kinase GK.
as §2, §3, §4, §5

plasma triglyceride = assay: Triglycerides in plasma, laying-hen feeding trial (Example 2); format: in vivo, laying hens; conditions: for Triglycerides, plasma: control 2496; for reduction of plasma triglyceride level: Example 2, maximum
Method: as §7, §2, §3, §4, §6, §5

HMG-CoA reductase [2] = conditions: cell culture and rats and mice; cited from earlier work
tumors = conditions: cell culture and rats and mice; cited from earlier work
[3] = system: cholesterol synthesis in macrophages; conditions: Fuhrmann et al. 1997; cited from earlier work
[4] = system: total cholesterol in the yolk; assay: Total cholesterol in egg yolk, laying-hen feeding trial (Example 1); format: in vivo, laying hens (Lohmann Selected Leghorn); conditions: 4 weeks
Method: (§8) At the start of the trial, the laying hens (Lohmann Selected Leghorn) had been laying for 28 weeks. One treatment group consisted of 10 hens. The birds were initially fed with the various active ingredients for 4 weeks. The eggs were then collected for the analyses. 3 independent yolk pools were formed from 6 eggs in each case and were deep-frozen until analyzed. Total cholesterol and triglycerides in the yolk were analyzed by enzymatic methods. The analyses were carried out as stated in the handbook "Veterinarmedizinische Laboruntersuchungen fur die Diagnose und Verlaufskontrolle" (1985), 3rd edition, published by Boehringer Mannheim GmbH, Mannheim.
as §1
(§9) The data were subjected to analysis of variance, and differences between means were ranged by the Duncan test.

[5] = system: triglycerides in the yolk; assay: Triglycerides in egg yolk, laying-hen feeding trial (Example 1); format: in vivo, laying hens (Lohmann Selected Leghorn); conditions: 4 weeks
Method: as §8, §7
glycerol+ATP.revreaction.glycerol 3-phosphate+ADP
The resulting ADP is converted by pyruvate kinase (PK) with phosphoenolpyruvate (PEP) back into ATP, with formation of pyruvate. [drawing 6] Pyruvate is hydrogenated to lactate by lactate dehydrogenase (LDH) with NADH, the NADH being oxidized to NAD. [drawing 7]
The amount of NADH consumed during the reaction is equivalent to the amount of glycerol. NADH is the measured variable and can easily be determined from its absorption at Hg 366 nm, Hg 334 nm or 340 nm.
as §9

[6] = Tocopherol and tocotrienol contents in yolk by HPLC (Example 1); format: in vivo, laying hens (Lohmann Selected Leghorn)
Method: as §8
Tocopherols and tocotrienols in the yolk pools were determined by HPLC. To do this, the sample is hydrolyzed in aqueous alcoholic medium and extracted several times with diethyl ether. Quantification takes place by comparison with external standards.
Stationary phase: Spherisorb CN 5 μm, 250×4 mm
Mobile phase: n-Hexane with 0.25% i-propanol
Fluorescence detection: 292 nm (extinction) 326 nm (emission)

[7] = system: β-hydroxy-β-methyl-glutaryl (HMG)-CoA reductase; conditions: cited from earlier work
[8] = system: cholesterol content of poultry eggs; conditions: cited from earlier work; for reduction of cholesterol content of poultry eggs: literature (Elkin et al.)
[9] = cited from earlier work
HMG-CoA reductase [10] = conditions: broilers, supplementation; cited from earlier work
plasma cholesterol [11] = conditions: broilers, when cholesterol was fed at the same time; cited from earlier work
[12] = both dosages (100 and 1000 mg/kg feed)
[13] = 500 mg/kg feed, significant, complete yolk
[14] = 20 mg/kg feed, after hydrolysis
[15] = 500 mg/kg feed, after hydrolysis
[16] = 1000 mg/kg feed, after hydrolysis

Compound: CC(=O)/C=C/C1=C(C)CCCC1(C)C [β-Ionone, β-ionone]
Cholesterol, yolk (cholesterol in yolk; 100 mg/kg feed): 9.03 mg/g
Cholesterol, yolk (cholesterol in yolk; 1000 mg/kg feed): 9.03 mg/g
reduction in yolk cholesterol (cholesterol in yolk; [12]): up to 18%
Cholesterol, plasma (plasma cholesterol [1]; 1000 mg/kg feed): 201.3 mg/dL
Triglycerides, yolk (triglycerides in yolk; 100 mg/kg feed): 190.7 mg/g
Triglycerides, yolk (triglycerides in yolk; 1000 mg/kg feed): 184.8 mg/g
Triglycerides, plasma (plasma triglyceride; 1000 mg/kg feed): 1954 mg/dL
reduction of plasma triglyceride level (plasma triglyceride): ≤ 25%
inhibition of HMG-CoA reductase (HMG-CoA reductase [2]): inhibit HMG-CoA reductase
inhibition of tumors (tumors): inhibit tumors

Compound: C=C(C)[C@H]1CC=C(C)CC1 [d-limonene]
inhibition of HMG-CoA reductase (HMG-CoA reductase [2]): inhibit HMG-CoA reductase
inhibition of tumors (tumors): inhibit tumors

Compound: CC(C)=CCC/C(C)=C/CO [geraniol, reference compound]
inhibition of HMG-CoA reductase (HMG-CoA reductase [2]): inhibit HMG-CoA reductase
inhibition of tumors (tumors): inhibit tumors

Compound: CC(C)=CCC/C(C)=C/C=C/C(C)=C/C=C/C(C)=C/C=C/C=C(C)/C=C/C=C(C)/C=C/C=C(\C)CCC=C(C)C [lycopene]
inhibition of cholesterol synthesis in macrophages [3]: inhibit cholesterol synthesis in macrophages

α-Tocopherol content in yolk [6, 14]: 545 μg/yolk
α-Tocotrienol content in yolk [6, 14]: 0 μg/yolk
γ-Tocopherol content in yolk [6, 14]: 393 μg/yolk
δ-Tocopherol content in yolk [6, 14]: 57 μg/yolk
δ-Tocotrienol content in yolk [6, 14]: 0 μg/yolk
α-Tocopherol content in yolk [6, 15]: 433 μg/yolk
α-Tocotrienol content in yolk [6, 15]: 0 μg/yolk
γ-Tocopherol content in yolk [6, 15]: 425 μg/yolk
δ-Tocopherol content in yolk [6, 15]: 59 μg/yolk
δ-Tocotrienol content in yolk [6, 15]: 366 μg/yolk
Compound: CC(=O)Oc1cc2c(c(C)c1C)OC(C)(CC/C=C(\C)CC/C=C(\C)CCC=C(C)C)CC2 (racemic) [γ-tocotrienol acetate]
reduction in cholesterol in the yolk [4, 13]: 15%
effect on cholesterol in the yolk ([4]; low dosage, 20 mg/kg feed): no effect
reduction in triglycerides in the yolk [5, 13]: 15%
effect on triglycerides in the yolk ([5]; low dosage, 20 mg/kg feed): no effect

Compound: nicotinate [reference compound]
effect of ester form by comparison with the alcohol and acetate forms ([7]; U.S. Pat. No. 5,217,992): most pronounced

Compound: CC1=C(/C=C/C(C)=C/C=C/C(C)=C/C=C/C=C(C)/C=C/C=C(C)/C=C/C2=C(C)CCCC2(C)C)C(C)(C)CCC1 [β-carotene]
inhibition of cholesterol synthesis in macrophages [3]: inhibit cholesterol synthesis in macrophages

Compound: CC(C)=CCC/C(C)=C/CC/C(C)=C/CCC1(C)CC(=O)c2cc(O)c(C)c(C)c2O1 (stereo not shown) [4-Oxo-γ-tocotrienol, 4-oxo-γ-tocotrienol]
Cholesterol, yolk (cholesterol in yolk; 50 mg/kg feed): 9.78 mg/g
Cholesterol, yolk (cholesterol in yolk; 500 mg/kg feed): 8.55 mg/g
reduction in yolk cholesterol (cholesterol in yolk; high dosage (500 mg/kg feed)): up to 18%
Cholesterol, plasma (plasma cholesterol [1]; 500 mg/kg feed): 166.8 mg/dL
Triglycerides, yolk (triglycerides in yolk; 50 mg/kg feed): 188.3 mg/g
Triglycerides, yolk (triglycerides in yolk; 500 mg/kg feed): 172.0 mg/g
Triglycerides, plasma (plasma triglyceride; 500 mg/kg feed): 4336 mg/dL

Compound: C=C(C)C1CC=C(CO)CC1 (stereo not shown) [Perillyl alcohol, perillyl alcohol]
Cholesterol, yolk (cholesterol in yolk; 500 mg/kg feed): 9.55 mg/g
Cholesterol, yolk (cholesterol in yolk; 5000 mg/kg feed): 9.53 mg/g
trend in yolk cholesterol content (cholesterol in yolk): trend toward reduced cholesterol contents in yolk
Cholesterol, plasma (plasma cholesterol [1]; 5000 mg/kg feed): 165.3 mg/dL
Triglycerides, yolk (triglycerides in yolk; 500 mg/kg feed): 188.5 mg/g
Triglycerides, yolk (triglycerides in yolk; 5000 mg/kg feed): 174.4 mg/g
Triglycerides, plasma (plasma triglyceride; 5000 mg/kg feed): 2197 mg/dL
reduction of plasma triglyceride level (plasma triglyceride): ≤ 25%

Compound: CC[C@H](C)C(=O)O[C@H]1C[C@@H](C)C=C2C=C[C@H](C)[C@H](CC[C@@H]3C[C@@H](O)CC(=O)O3)[C@H]21 [lovastatin]
reduction of cholesterol content of poultry eggs [8]: 15%
influence on poultry performance parameters, such as the egg output ([9]; in vivo): without influencing

Compound: CC(=O)Oc1c(C)c(C)c2c(c1C)CCC(C)(CCCC(C)CCCC(C)CCCC(C)C)O2 (racemic) [vitamin E (all-rac-α-tocopheryl acetate), all-rac-α-tocopheryl acetate, reference compound]
effect on cholesterol in the yolk ([4]; 1000 mg/kg feed): no effect
effect on triglycerides in the yolk ([5]; 1000 mg/kg feed): no effect
α-Tocopherol content in yolk [6, 16]: 23064 μg/yolk
α-Tocotrienol content in yolk [6, 16]: 227 μg/yolk
γ-Tocopherol content in yolk [6, 16]: 188 μg/yolk
δ-Tocopherol content in yolk [6, 16]: 36 μg/yolk
δ-Tocotrienol content in yolk [6, 16]: 0 μg/yolk
α-Tocopherol content in yolk ([6]; 1000 mg/kg feed, control 0.48 mg): 23 mg
effect on γ-tocopherol in the yolk ([6]; high α-tocopherol dosage (1000 mg/kg feed)): reduction in γ-tocopherol in the yolk
effect on HMG-CoA reductase (HMG-CoA reductase [10]): stimulation of HMG-CoA reductase
change in plasma cholesterol (plasma cholesterol [11]): increase in plasma cholesterol

Compound: CCC(C)(C)C(=O)O[C@H]1C[C@@H](C)C=C2C=C[C@H](C)[C@H](CC[C@@H]3C[C@@H](O)CC(=O)O3)[C@H]21 [simvastatin]
effect on the cholesterol content in eggs ([8]; literature (Huggett et al.; Beyer and Jensen)): no effect

Compound: CC(C)=CCC/C(C)=C/CC/C(C)=C/CCC1(C)CCc2cc(O)c(C)c(C)c2O1 (stereo not shown) [γ-tocotrienol]
accumulation of γ-tocotrienol in the yolk ([6]; fed as γ-tocotrienol acetate): scarcely any accumulation
γ-tocotrienol detected in the yolk ([6]; high dosage (500 mg/kg feed, as acetate)): 366 µg
relative effect versus α-tocotrienol ([7]; HepG2 cell cultures): about 30 times

Compound: CC(=O)OC/C=C(\C)CC/C=C(\C)CCC=C(C)C [Farnesyl acetate, farnesyl acetate]
Cholesterol, yolk (cholesterol in yolk; 750 mg/kg feed): 10.15 mg/g
Cholesterol, yolk (cholesterol in yolk; 7500 mg/kg feed): 10.23 mg/g
Cholesterol, plasma (plasma cholesterol [1]; 7500 mg/kg feed): 129.3 mg/dL
Triglycerides, yolk (triglycerides in yolk; 750 mg/kg feed): 177.1 mg/g
Triglycerides, yolk (triglycerides in yolk; 7500 mg/kg feed): 175.9 mg/g
Triglycerides, plasma (plasma triglyceride; 7500 mg/kg feed): 1929 mg/dL
reduction of plasma triglyceride level (plasma triglyceride): ≤ 25%

Compound: CC(C)c1c(Br)c(Br)c(-c2ccc(F)cc2)n1CC[C@@H](O)C[C@@H](O)CC(=O)O (relative stereo) [(±)-(R*,R*)-3,4-dibromo-β,δ-dihydroxy-2-(4-fluorophenyl)-5-(1-methylethyl)-1H-pyrrole-1-heptanoic acid, Na salt]
reduction of cholesterol content of poultry eggs [8]: 30%
influence on poultry performance parameters, such as the egg output ([9]; literature (Elkin et al.)): without influencing

Compound: C=CC(C)(O)CCC=C(C)C (stereo not shown) [Linalool, linalool]
Cholesterol, yolk (cholesterol in yolk; 100 mg/kg feed): 8.40 mg/g
Cholesterol, yolk (cholesterol in yolk; 1000 mg/kg feed): 8.97 mg/g
reduction in yolk cholesterol (cholesterol in yolk; [12]): up to 18%
Cholesterol, plasma (plasma cholesterol [1]; 1000 mg/kg feed): 211.6 mg/dL
Triglycerides, yolk (triglycerides in yolk; 100 mg/kg feed): 187.5 mg/g
Triglycerides, yolk (triglycerides in yolk; 1000 mg/kg feed): 163.1 mg/g
Triglycerides, plasma (plasma triglyceride; 1000 mg/kg feed): 1907 mg/dL
inhibition of HMG-CoA reductase (HMG-CoA reductase [2]): inhibit HMG-CoA reductase
inhibition of tumors (tumors): inhibit tumors

Compound: CC(C)=CCC/C(C)=C/CC/C(C)=C/CCC1(C)CCc2cc(O)cc(C)c2O1 (stereo not shown) [δ-Tocotrienol, δ-tocotrienol]
Cholesterol, yolk (cholesterol in yolk; 50 mg/kg feed): 9.25 mg/g
Cholesterol, yolk (cholesterol in yolk; 500 mg/kg feed): 9.23 mg/g
trend in yolk cholesterol content (cholesterol in yolk): trend toward reduced cholesterol contents in yolk
Cholesterol, plasma (plasma cholesterol [1]; 500 mg/kg feed): 163.0 mg/dL
Triglycerides, yolk (triglycerides in yolk; 50 mg/kg feed): 185.2 mg/g
Triglycerides, yolk (triglycerides in yolk; 500 mg/kg feed): 163.9 mg/g
Triglycerides, plasma (plasma triglyceride; 500 mg/kg feed): 2985 mg/dL
